Publication PMC8451667 (Emerging Microbes & Infections, 2021)
Like-named read-outs stand apart in the source and are kept apart here.

Experiments:
[1] = system: A/California/04/2009 (H1N1) Ca/04; experiment: microbe, parasite or virus in culture; type: cell-based; settings: Influenza A virus
[2] = system: Ca/04 OsR (A/California/04/2009 (H1N1)-H275Y); parameters: species or system mice; settings: mouse, in vivo
[3] = system: A/California/07/2009 (H1N1); experiment: microbe, parasite or virus in culture; type: cell-based, Influenza A virus
[4] = H1N1, read-out: EC50 (μM), A/California/04/2009 (H1N1) Ca/04

| Structure (SMILES) | EC50 [1, 4] [µM] | Body weight loss [2] [%] | Survival [2] [%] | Clinical signs ([2]; ip) | EC50 increase at passage 6 [3] [fold] | EC50 ([3]; Influenza A virus, H1N1, read-out: EC50 (μM), serial passage) [µM] | EC50 ([1]; H1N1, read-out: EC50 (nM), A/California/04/2009 (H1N1) Ca/04) [µM] |
| --- | --- | --- | --- | --- | --- | --- | --- |
| NC12CC3CC(CC(C3)C1)C2 [Amantadine] | > 20 |  |  |  |  |  |  |
| [2H]C(NC12CC3CC(CC(O)(C3)C1)C2)c1ccc(I)s1 (stereo not shown) [UAWJ280, 3-{[(5-iodothiophen-2-yl)(D)methyl]amino}adamantan-1-ol] | 0.27 ± 0.04 | ~15 | 65 | mild clinical signs | 7 | 0.27 |  |
| CCC(CC)O[C@@H]1C=C(C(=O)O)C[C@H](N)[C@H]1NC(C)=O [Oseltamivir carboxylate] |  |  |  |  |  |  | 0.0014 ± 0.00032 |
| CCOC(=O)C1=C[C@@H](OC(CC)CC)[C@H](NC(C)=O)[C@@H](N)C1 [Oseltamivir, Oseltamivir phosphate, reference compound] |  | ~20 | 16 |  |  |  |  |
